From article doi:10.1101/466938v1, “The distinct biochemical property enables thymidylate kinase as a drug target and participates in pyrimidine drug sensitivity in Candida albicans” (biorxiv, 2018)
Converted amounts (≈) assume the structure as drawn. Like-named read-outs stand apart in the source and are kept apart here.

How the values were obtained:
Test in all cases: microbe, parasite or virus in culture
Design in all cases: species or system Candida albicans strains; Sensititre YeastOne SYO-09 colorimetric microdilution, visual MIC at >=50% growth inhibition
[1] = test system: T1, Candida albicans F2016g048; conditions: F2016G048, 24 h
T1 construct: F2016g048
Procedure: (§1) Minimum inhibitory concentrations (MICs) of 5-FUrd were determined by broth microdilution method in accordance with the guidelines in Clinical and Laboratory Standards Institute (CLSI) document M27[25], using RPMI 1640 medium containing 0.165 M MOPs (pH 7.0) and 0.2% glucose, an inoculum of 10^3 cells/well, and incubated for 24 hr at 35°C, followed by OD600 reading by TECAN SPARK plate reader. The MIC50 of 5-FUrd was determined as the lowest dosage of 5-FUrd causing 50% inhibition of the growth by using the concentrations in the range of 0.004-2μg/mL. MICs of […] of human use (5-FC; four azoles: posaconazole, voriconazole, itraconazole, fluconazole; and three echinocandins: anidulafungin, caspofungin and micafungin) were determined by the microdilution colorimetric Sensititre YeastOne SYO-09 panel (TREK Diagnostic Systems, Cleveland, OH, USA); in accordance with the manufacturer’s instructions. MICs values were determined visually, after 24 hours of incubation, as the lowest concentration of drug that caused complete inhibition (amphotericin B) or a significant diminution (≥50% inhibition; flucytosine, azoles and echinocandins) of growth relative to that of the growth control. Table 2. Minimum inhibitory concentrations of 5-FUrd and antifungal drugs of clinical used for pathogenic and drug-resistant isolates of Candida albicans^a

[2] = test system: T2, Candida albicans F2016a067; conditions: F2016A067, 24 h
T2 construct: F2016a067
Procedure: as §1

[3] = test system: T3, Candida albicans F2014a093; conditions: F2014A093, 24 h
T3 construct: F2014a093
Procedure: as §1

[4] = test system: T4, Candida albicans F2015f019; conditions: F2015F019, 24 h
T4 construct: F2015f019
Procedure: as §1

[5] = test system: T5, Candida albicans F2014f090; conditions: F2014F090, 24 h
T5 construct: F2014f090
Procedure: as §1

Candida albicans SC5314 = test system: T6, Candida albicans SC5314; conditions: SC5314, 24 h
T6 construct: SC5314
Procedure: as §1

[6] = test system: T7, Candida albicans F2016e085; conditions: F2016E085, 24 h
T7 construct: F2016e085
Procedure: as §1

[7] = test system: T8, Candida albicans F2016c087; conditions: F2016C087, 24 h
T8 construct: F2016c087
Procedure: as §1

[8] = test system: T9, Candida albicans F2015b076; conditions: F2015B076, 24 h
T9 construct: F2015b076
Procedure: as §1

[9] = test system: T10, Candida albicans ATCC90028; conditions: ATCC90028, 24 h
T10 construct: ATCC 90028
Procedure: as §1

[10] = test system: T11, Candida albicans F2017g023; conditions: F2017G023, 24 h
T11 construct: F2017g023
Procedure: as §1

[11] = test system: T12, Candida albicans F2016f024; conditions: F2016F024, 24 h
T12 construct: F2016f024
Procedure: as §1

[12] = read-out: Itraconazole MIC (µg/mL)
[13] = read-out: Fluconazole MIC (µg/mL)
[14] = read-out: Posaconazole MIC (µg/mL)
[15] = read-out: Voriconazole MIC (µg/mL)

What does the source list for `CCC(C)n1ncn(-c2ccc(N3CCN(c4ccc(OC[C@H]5CO[C@](Cn6cncn6)(c6ccc(Cl)cc6Cl)O5)cc4)CC3)cc2)c1=O` (mixture of isomers) [Itraconazole, itraconazole]?
MIC [1, 12]: 1 µg/mL; MIC [2, 12]: > 16 µg/mL; MIC [3, 12]: > 16 µg/mL; MIC [4, 12]: 0.12 µg/mL; MIC [5, 12]: > 16 µg/mL; MIC (Candida albicans SC5314; [12]): 0.06 µg/mL; MIC [6, 12]: 0.03 µg/mL; MIC [7, 12]: 0.12 µg/mL; MIC [8, 12]: 0.5 µg/mL; MIC [9, 12]: 0.06 µg/mL; MIC [10, 12]: 0.06 µg/mL; MIC [11, 12]: 0.12 µg/mL

What does the source list for `Nc1[nH]c(=O)ncc1F` [5-FC, 5-flucytosine]?
MIC ([1]; read-out: 5-FC MIC (µg/mL)): 0.03 µg/mL (≈ 0.232 µM); MIC ([2]; read-out: 5-FC MIC (µg/mL)): 0.03 µg/mL (≈ 0.232 µM); MIC ([3]; read-out: 5-FC MIC (µg/mL)): 0.03 µg/mL (≈ 0.232 µM); MIC ([4]; read-out: 5-FC MIC (µg/mL)): 0.03 µg/mL (≈ 0.232 µM); MIC ([5]; read-out: 5-FC MIC (µg/mL)): 0.12 µg/mL (≈ 0.93 µM); MIC (Candida albicans SC5314; read-out: 5-FC MIC (µg/mL)): 0.06 µg/mL (≈ 0.465 µM); MIC ([6]; read-out: 5-FC MIC (µg/mL)): 8 µg/mL (≈ 62 µM); MIC ([7]; read-out: 5-FC MIC (µg/mL)): > 64 µg/mL; MIC ([8]; read-out: 5-FC MIC (µg/mL)): 0.03 µg/mL (≈ 0.232 µM); MIC ([9]; read-out: 5-FC MIC (µg/mL)): 0.5 µg/mL (≈ 3.87 µM); MIC ([10]; read-out: 5-FC MIC (µg/mL)): > 64 µg/mL; MIC ([11]; read-out: 5-FC MIC (µg/mL)): 0.03 µg/mL (≈ 0.232 µM)

With `OC(Cn1cncn1)(Cn1cncn1)c1ccc(F)cc1F` [Fluconazole, fluconazole] as the compound, how does the MIC [1, 13] read?
Its MIC is 256 µg/mL (≈ 836 µM).

What about the MIC [2, 13] of the same compound?
Its MIC is 64 µg/mL (≈ 209 µM).

And the MIC [3, 13]?
Its MIC is > 256 µg/mL.

And the MIC [4, 13]?
Its MIC is 4 µg/mL (≈ 13.1 µM).

And the MIC [5, 13]?
The MIC was 2 µg/mL (≈ 6.53 µM).

What about the MIC (Candida albicans SC5314; [13]) of the same compound?
Its MIC is 0.5 µg/mL (≈ 1.63 µM).

And the MIC [6, 13]?
Its MIC is 0.06 µg/mL (≈ 0.196 µM).

And the MIC [7, 13]?
The MIC was 0.5 µg/mL (≈ 1.63 µM).

And the MIC [8, 13]?
The MIC was 256 µg/mL (≈ 836 µM).

And the MIC [9, 13]?
The MIC was 1 µg/mL (≈ 3.27 µM).

What about the MIC [10, 13] of the same compound?
Its MIC is 0.5 µg/mL (≈ 1.63 µM).

What about the MIC [11, 13] of the same compound?
The MIC was 8 µg/mL (≈ 26.1 µM).

With `CC[C@@H]([C@H](C)O)n1ncn(-c2ccc(N3CCN(c4ccc(OC[C@@H]5CO[C@@](Cn6cncn6)(c6ccc(F)cc6F)C5)cc4)CC3)cc2)c1=O` [Posaconazole, posaconazole] as the compound, how does the MIC [1, 14] read?
The MIC was 1 µg/mL (≈ 1.43 µM).

And the MIC [2, 14]?
Its MIC is 0.03 µg/mL (≈ 0.0428 µM).

And the MIC [3, 14]?
The MIC was > 8 µg/mL.

What about the MIC [4, 14] of the same compound?
The MIC was 0.12 µg/mL (≈ 0.171 µM).

What about the MIC [5, 14] of the same compound?
Its MIC is > 8 µg/mL.

What about the MIC (Candida albicans SC5314; [14]) of the same compound?
Its MIC is 0.015 µg/mL (≈ 0.0214 µM).

What about the MIC [6, 14] of the same compound?
Its MIC is 0.015 µg/mL (≈ 0.0214 µM).

And the MIC [7, 14]?
The MIC was 0.06 µg/mL (≈ 0.0856 µM).

And the MIC [8, 14]?
The MIC was 1 µg/mL (≈ 1.43 µM).

And the MIC [9, 14]?
The MIC was 0.06 µg/mL (≈ 0.0856 µM).

What about the MIC [10, 14] of the same compound?
The MIC was 0.03 µg/mL (≈ 0.0428 µM).

What about the MIC [11, 14] of the same compound?
The MIC was 0.25 µg/mL (≈ 0.357 µM).

With `C[C@@H](c1ncncc1F)[C@](O)(Cn1cncn1)c1ccc(F)cc1F` [Voriconazole, voriconazole] as the compound, how does the MIC [1, 15] read?
Its MIC is > 8 µg/mL.

What about the MIC [2, 15] of the same compound?
The MIC was 0.03 µg/mL (≈ 0.0859 µM).

What about the MIC [3, 15] of the same compound?
Its MIC is > 8 µg/mL.

And the MIC [4, 15]?
The MIC was 0.06 µg/mL (≈ 0.172 µM).

What about the MIC [5, 15] of the same compound?
Its MIC is 0.25 µg/mL (≈ 0.716 µM).

And the MIC (Candida albicans SC5314; [15])?
The MIC was 0.015 µg/mL (≈ 0.0429 µM).

What about the MIC [6, 15] of the same compound?
Its MIC is 0.004 µg/mL (≈ 0.0115 µM).

And the MIC [7, 15]?
Its MIC is 0.015 µg/mL (≈ 0.0429 µM).

And the MIC [8, 15]?
The MIC was > 8 µg/mL.

What about the MIC [9, 15] of the same compound?
The MIC was 0.015 µg/mL (≈ 0.0429 µM).

And the MIC [10, 15]?
The MIC was 0.004 µg/mL (≈ 0.0115 µM).

What about the MIC [11, 15] of the same compound?
The MIC was 0.5 µg/mL (≈ 1.43 µM).
